pIC50: −log10 of the molar value.
Tests used:
[1] = system: SKBR3 (PI3Kα-Wild Type) cell line; assay: HTRF phospho-AKT(S473) cell assay in SKBR3 cells; format: cell-based, human
Summary of the method: (§1)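 Cells plated overnight (T47D in RPMI/10% FBS/0.2 units/mL insulin; SKBR3 in McCoy's 5A/10% FBS), then given 12-point 1:3 compound series (top 5 μM T47D, 10 μM SKBR3; ≤0.5% DMSO) for 2 h at 37° C. SKBR3 stimulated with 70 ng/ml PDGF-BB for final 15 min. Lysate pAKT(S473) by HTRF; IC50 calculated.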

[2] = system: T47D (PI3Kα-H1047R) cell line; assay: HTRF phospho-AKT(S473) cell assay in T47D cells; format: cell-based, human
Summary of the method: as §1

[3] = Homo sapiens, SK-BR-3; HTRF phospho-AKT(S473), SKBR3 (PI3Kα-Wild Type) cells, 2 hours compound incubation, PDGF-BB stimulated
[4] = Homo sapiens; HTRF phospho-AKT(S473), T47D (PI3Kα-H1047R) cells, 2 hours compound incubation
[5] = Homo sapiens, SK-BR-3; SKBR3 (PI3Kα-Wild Type) cells, HTRF phospho-AKT(S473), 2 hours compound incubation, PDGF-BB stimulated
[6] = Homo sapiens; T47D (PI3Kα-H1047R) cells, HTRF phospho-AKT(S473), 2 hours compound incubation

| Compound | pIC50 [1, 3] | pIC50 [2, 4] | pIC50 [1, 5] | pIC50 [2, 6] |
| --- | --- | --- | --- | --- |
| Cc1cc([C@@H](C)Nc2ccc(Cl)nc2C(=O)NS(C)(=O)=O)c2nc(N3C[C@@H]4[C@H](C3)[C@H]4c3nn(C4CC4)cc3F)n(C)c(=O)c2c1 [Compound 569, 6-chloro-3-(((R)-1-(2-((1R,5S,6R)-6-(1-cyclopropyl-4-fluoro-1H-pyrazol-3-yl)-3-azabicyclo[3.1.0]hexan-3-yl)-3,6-dimethyl-4-oxo-3,4-dihydroquinazolin-8-yl)ethyl)amino)-N-(methylsulfonyl) picolinamide] | ≤ 5.30 | 6.30 to 6.60 | – | – |
| Cc1cc([C@@H](C)Nc2ccc(Cl)nc2C(=O)NS(C)(=O)=O)c2nc(N3CC[C@H](Oc4ccnn4C)C3)n(C)c(=O)c2c1 [Compound 351, 6-chloro-3-(((R)-1-(3,6-dimethyl-2-((S)-3-((1-methyl-1H-pyrazol-5-yl)oxy)pyrrolidin-1-yl)-4-oxo-3,4-dihydroquinazolin-8-yl)ethyl)amino)-N-(methylsulfonyl) picolinamide] | – | – | 5.30 to 6.00 | > 6.60 |
| Cc1cc([C@@H](C)Nc2ccc(Cl)nc2C(=O)NS(C)(=O)=O)c2nc(N3CC[C@@H](c4ccc(C)nc4)C3)n(C)c(=O)c2c1 (relative stereo) [Compound 659, 6-chloro-3-(((R)-1-(3,6-dimethyl-2-((R*)-3-(6-methylpyridin-3-yl)pyrrolidin-1-yl)-4-oxo-3,4-dihydroquinazolin-8-yl)ethyl)amino)-N-(methylsulfonyl) picolinamide] | 5.30 to 6.00 | > 6.60 | – | – |
| Cc1cc([C@@H](C)Nc2ccc(Cl)nc2C(=O)NS(C)(=O)=O)c2nc(N3CCC(c4cccc5c4cnn5C)CC3)n(C)c(=O)c2c1 [Compound 678, (R)-6-chloro-3-((1-(3,6-dimethyl-2-(4-(1-methyl-1H-indazol-4-yl)piperidin-1-yl)-4-oxo-3,4-dihydroquinazolin-8-yl)ethyl)amino)-N-(methylsulfonyl) picolinamide] | ≤ 5.30 | 6.30 to 6.60 | – | – |
| Cc1cc([C@@H](C)Nc2ccc(Cl)nc2C(=O)NS(C)(=O)=O)c2nc(N3C[C@@H]4[C@H](C3)[C@H]4c3cc(C)nn3C3CC3)n(C)c(=O)c2c1 [Compound 568, 6-chloro-3-(((R)-1-(2-((1R,5S,6R)-6-(1-cyclopropyl-3-methyl-1H-pyrazol-5-yl)-3-azabicyclo[3.1.0]hexan-3-yl)-3,6-dimethyl-4-oxo-3,4-dihydroquinazolin-8-yl)ethyl)amino)-N-(methylsulfonyl) picolinamide] | 5.30 to 6.00 | 6.30 to 6.60 | – | – |
| Cc1cc([C@@H](C)Nc2ccc(Cl)nc2C(=O)NS(C)(=O)=O)c2nc(N3CCN(c4ncc(F)cn4)CC3)n(C)c(=O)c2c1 [Compound 533, (R)-6-chloro-3-((1-(2-(4-(5-fluoropyrimidin-2-yl)piperazin-1-yl)-3,6-dimethyl-4-oxo-3,4-dihydroquinazolin-8-yl)ethyl)amino)-N-(methylsulfonyl) picolinamide] | 5.30 to 6.00 | > 6.60 | – | – |
| Cc1cc([C@@H](C)Nc2ccc(Cl)nc2C(=O)NS(C)(=O)=O)c2nc(-c3cnc(N4CCOCC4)nc3)n(C)c(=O)c2c1 [Compound 814, (R)-6-chloro-3-((1-(3,6-dimethyl-2-(2-morpholinopyrimidin-5-yl)-4-oxo-3,4-dihydroquinazolin-8-yl)ethyl)amino)-N-(methylsulfonyl) picolinamide] | 5.30 to 6.00 | > 6.60 | – | – |
| Cc1cc([C@@H](C)Nc2ccc(Cl)nc2C(=O)NS(C)(=O)=O)c2nc(N3C[C@@H]4[C@H](C3)[C@H]4c3cnc(C4CC4)nc3)n(C)c(=O)c2c1 [Compound 485, 6-chloro-3-(((R)-1-(2-((1R,5S,6S)-6-(2-cyclopropylpyrimidin-5-yl)-3-azabicyclo[3.1.0]hexan-3-yl)-3,6-dimethyl-4-oxo-3,4-dihydroquinazolin-8-yl)ethyl)amino)-N-(methylsulfonyl) picolinamide] | 5.30 to 6.00 | 6.30 to 6.60 | – | – |
| Cc1ccc(C2CCN(c3nc4c([C@@H](C)Nc5ccc(Cl)nc5C(=O)NS(C)(=O)=O)cc(F)cc4c(=O)n3C)CC2)cn1 [Compound 365, (R)-6-chloro-3-((1-(6-fluoro-3-methyl-2-(4-(6-methylpyridin-3-yl)piperidin-1-yl)-4-oxo-3,4-dihydroquinazolin-8-yl)ethyl)amino)-N-(methylsulfonyl) picolinamide] | – | – | 5.30 to 6.00 | > 6.60 |
| COc1nccc(N2C[C@H]3C[C@@H]2CN3c2nc3c([C@@H](C)Nc4ccc(Cl)nc4C(=O)NS(C)(=O)=O)cc(C)cc3c(=O)n2C)n1 [Compound 582, 6-chloro-3-(((R)-1-(2-((1R,4R)-5-(2-methoxypyrimidin-4-yl)-2,5-diazabicyclo [2.2.1]heptan-2-yl)-3,6-dimethyl-4-oxo-3,4-dihydroquinazolin-8-yl)ethyl)amino)-N-(methylsulfonyl) picolinamide] | ≤ 5.30 | 6.30 to 6.60 | – | – |
| Cc1cc([C@@H](C)Nc2ccc(Cl)nc2C(=O)NS(C)(=O)=O)c2nc([C@H]3[C@@H]4CN(c5ccc(C)nc5)C[C@@H]43)n(C)c(=O)c2c1 [Compound 829, 6-chloro-3-(((R)-1-(3,6-dimethyl-2-((1R,5S,6r)-3-(6-methylpyridin-3-yl)-3-azabicyclo[3.1.0]hexan-6-yl)-4-oxo-3,4-dihydroquinazolin-8-yl)ethyl)amino)-N-(methylsulfonyl) picolinamide] | ≤ 5.30 | 6.30 to 6.60 | – | – |
| Cc1cc([C@@H](C)Nc2ccc(Cl)nc2C(=O)NS(C)(=O)=O)c2nc(N3C[C@@H]4C[C@H]3CN4c3ccccn3)n(C)c(=O)c2c1 [Compound 604, 6-chloro-3-(((R)-1-(3,6-dimethyl-4-oxo-2-((1S,4S)-5-(pyridin-2-yl)-2,5-diazabicyclo [2.2.1]heptan-2-yl)-3,4-dihydroquinazolin-8-yl)ethyl)amino)-N-(methylsulfonyl) picolinamide] | ≤ 5.30 | 6.30 to 6.60 | – | – |
| CCn1c(N2C[C@@H]3[C@H](C2)[C@H]3c2cn(C)nn2)nc2c([C@@H](C)Nc3ccc(Cl)nc3C(=O)NS(C)(=O)=O)cc(C)cc2c1=O [Compound 622, 6-chloro-3-(((R)-1-(3-ethyl-6-methyl-2-((1R,5S,6R)-6-(1-methyl-1H-1,2,3-triazol-4-yl)-3-azabicyclo[3.1.0]hexan-3-yl)-4-oxo-3,4-dihydroquinazolin-8-yl)ethyl)amino)-N-(methylsulfonyl) picolinamide] | 5.30 to 6.00 | > 6.60 | – | – |
| Cc1cc([C@@H](C)Nc2ccc(Cl)nc2C(=O)NS(C)(=O)=O)c2nc(N3C[C@@H]4C[C@H]3C[C@H]4c3nn(C)cc3F)n(C)c(=O)c2c1 (relative stereo) [Compound 761, 6-chloro-3-(((R)-1-(2-((1R*,4S*,5S*)-5-(4-fluoro-1-methyl-1H-pyrazol-3-yl)-2-azabicyclo[2.2.1]heptan-2-yl)-3,6-dimethyl-4-oxo-3,4-dihydroquinazolin-8-yl)ethyl)amino)-N-(methylsulfonyl) picolinamide] | 5.30 to 6.00 | 6.30 to 6.60 | – | – |
| Cc1cc([C@@H](C)Nc2ccc(Cl)nc2C(=O)NS(C)(=O)=O)c2nc(N3CCC(c4ccc(C)nc4)CC3)n(C)c(=O)c2c1 [Compound 271, (R)-6-chloro-3-((1-(3,6-dimethyl-2-(4-(6-methylpyridin-3-yl)piperidin-1-yl)-4-oxo-3,4-dihydroquinazolin-8-yl)ethyl)amino)-N-(methylsulfonyl) picolinamide] | – | – | 5.30 to 6.00 | > 6.60 |

From patent US12281122B1, “PI3K inhibitors” (Cogent Biosciences, Inc., priority 2023, dated 2025)
